Source: patent US11266717B2, “Diagnosis, prevention, and/or treatment of autoimmune diseases” (priority 2016, dated 2022)
Non-standard residues stand in square brackets, D forms with d. Residues, ends and D or L forms follow the SMILES beside them. *: point of attachment. Dolaproine = CO[C@@H]([C@@H]1CCCN1)[C@@H](C)C(=O)O; Dil = CC[C@H](C)[C@H](NC)[C@@H](CC(=O)O)OC; X1 = C[C@@H](N*)[C@@H](O)c1ccccc1; NMeV = CN[C@H](C(=O)O)C(C)C

Key:
[1] = tested on: anti-PLA2R autoantibodies; assay: Western blot of PLA2R-epitope proteins probed with patient serum containing anti-PLA2R autoantibodies; assay type: binding, human; details: SDS-PAGE under non-reducing condition
From the text: (§1) The construct was then expressed in the HEK293 cells and the epitope protein was purified using nickel and gel filtration columns followed with TEV cleavage to remove the His-tag. The protein was then coupled with a fluorescent agent (eg. FITC) or a cytotoxic reagent (eg. Monomethyl auristatin E (MMAE)).
In a separate experiment (FIG. 23; bottom right), equal amount of epitope, FITC conjugated epitope and MMAE conjugated epitope proteins were resolved on a SDS-PAGE under the non-reducing condition, transferred to a membrane, and probed by a patient serum containing anti-PLA2R autoantibodies. The unconjugated and the conjugated PLA2R-epitope proteins were resolved on a 4-20% SDS-PAGE under the non-reducing condition and probed with a patient serum containing anti-PLA2R autoantibodies (FIG. 23, bottom right).
as §1, with “(MMAE)) (FIG. 23).” for “(MMAE)).”

[2] = tested on: Dsg1 and Dsg3-epitope specific memory B cells isolated from mucocutaneous PV patients; assay: Elimination of Dsg1 and Dsg3-epitope specific memory B cells: 24 h preincubation, then Dsg1 and Dsg3-epitope-FITC staining; assay type: cell-based, human; details: preincubation 24 h; then Dsg1 and Dsg3-epitope-FITC 1 h at 4° C.; FIG. 30
Description: (§2) In some embodiments, the efficacy of an EDC may be tested in vitro using patient samples prior to administering the EDC to patients. For example, the efficacy of an EDC is tested on isolated B cells from patient peripheral blood mononuclear cells (PBMCs) (FIG. 25; Example 6, and FIG. 30; Example 9). An EDC comprising a fluorophore (e.g., FITC) is used detect the presence of autoantibody-producing B cells in patient samples (left panels in FIG. 25 (MN patient samples) and FIG. 30 (Pemphigus vulgaris patient samples) prior to exposing the samples to an EDC comprising a cytotoxic drug. The patient samples are then treated with an EDC comprising a cytotoxic drug (e.g., MMAE). The EDC comprising the fluorophore is then used determine the efficacy of the EDC comprising a cytotoxic drug of autoantibody-producing B cells in patient samples (middle panels in FIG. 25 (MN patient samples) and FIG. 30 (Pemphigus vulgaris patient samples)).
The efficacy of the Dsg1 and Dsg3 epitope conjugated to MMAE to eliminate Dsg1 and Dsg3-epitope specific memory B cells, respectively, isolated from the mucocutaneous PV patients was assessed. Total B cells isolated from patient peripheral blood were cultured overnight in RPMI medium and then split equally into two wells on a 12 well cell culture plate (2 ml/per well). […]

[3] = tested on: PLA2R-epitope specific memory B cells isolated from PMN patients; assay: Elimination of PLA2R-epitope specific memory B cells: 24 h preincubation, then PLA2R-epitope-FITC staining; assay type: cell-based, human; details: preincubation 24 h; then PLA2R-epitope-FITC 1 h at 4° C.; FIG. 25
Description: as §2
The efficacy of the PLA2R-epitope-MMAE on eliminating the PLA2R-epitope specific memory B cells isolated from PMN patients was assessed. MMAE is a potent cytotoxic agent that blocks tubulin polymerization causing cell death. MMAE has been used to develop an antibody-drug conjugate, Brentuximab vedotin (trade name Adcetris) for lymphoma treatment, and was approved by FDA in 2011. […]

Molecule | reaction/binding with anti-PLA2R autoantibodies (Western blot) [1] | reaction/binding with anti-PLA2R autoantibodies (Western blot) ([1]; listed as modified PLA2R-epitope) | reaction/binding with anti-PLA2R autoantibodies (Western blot) ([1]; listed as unconjugated PLA2R-epitope) | staining of B cells with Dsg1 and Dsg3-epitope-FITC after preincubation (elimination of Dsg1 and Dsg3-epitope specific memory B cells) [2] | staining of B cells with PLA2R-epitope-FITC after preincubation (elimination of PLA2R-epitope specific memory B cells) [3]
PLA2R-epitope: PLA2R CysR, FnII and CTLD1 domains with free cysteine engineered into the C-terminal tail, expressed in HEK293 cells, about 37 kDa | strongly reacted | strongly reacted | strongly |  | 
CC[C@H](C)[C@@H]([C@@H](CC(=O)N1CCC[C@H]1[C@H](OC)[C@@H](C)C(=O)N[C@H](C)[C@@H](O)c1ccccc1)OC)N(C)C(=O)[C@@H](NC(=O)[C@@H](NC)C(C)C)C(C)C [MMAE, Monomethyl auristatin E, reference compound] (H-[NMeV]V[Dil][Dolaproine]-X1) |  |  |  | a number of B cells being stained | a number of B cells being stained
